Test results: paper PMC5087326 (Biochemical and biophysical research communications, 2016)

Assays:
[1] = target: T1, LXRβ (Homo sapiens, UniProt P55055); experiment: LXRE-driven luciferase cotransfection assay in HEK293 cells; type: cell-based
T1 sequence (P55055 1-460): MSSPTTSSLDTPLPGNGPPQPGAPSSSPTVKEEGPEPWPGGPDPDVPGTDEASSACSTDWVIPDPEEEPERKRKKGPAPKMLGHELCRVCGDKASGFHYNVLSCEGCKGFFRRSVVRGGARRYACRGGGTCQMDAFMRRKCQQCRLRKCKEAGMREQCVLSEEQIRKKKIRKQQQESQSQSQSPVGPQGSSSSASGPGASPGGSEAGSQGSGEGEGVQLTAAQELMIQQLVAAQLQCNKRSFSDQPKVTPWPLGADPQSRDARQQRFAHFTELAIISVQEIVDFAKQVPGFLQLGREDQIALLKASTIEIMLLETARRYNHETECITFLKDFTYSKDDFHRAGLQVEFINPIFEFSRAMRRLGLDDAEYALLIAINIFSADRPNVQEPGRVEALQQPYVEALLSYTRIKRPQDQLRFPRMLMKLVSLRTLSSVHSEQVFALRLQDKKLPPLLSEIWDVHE

[2] = target: T2, LXRα (Homo sapiens, UniProt Q13133); experiment: Luminex coregulator peptide recruitment with LXRα LBD at […]; type: cell-based
T2 sequence (Q13133 209-447 limits assumed): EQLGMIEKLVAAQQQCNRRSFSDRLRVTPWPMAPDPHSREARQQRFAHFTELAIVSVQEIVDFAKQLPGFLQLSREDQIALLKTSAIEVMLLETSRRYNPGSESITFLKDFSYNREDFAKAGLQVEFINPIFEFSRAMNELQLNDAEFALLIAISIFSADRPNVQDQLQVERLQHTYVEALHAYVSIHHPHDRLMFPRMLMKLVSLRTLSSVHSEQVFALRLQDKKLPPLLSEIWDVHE

Compound: Cc1cc(C)c(S(=O)(=O)N(Cc2ccc(-c3cccc(S(C)(=O)=O)c3)cc2)Cc2ccc(C(F)(F)F)o2)c(C)c1 [GSK2033]
- IC50 [1]: 0.009 µM
- IC50 [2]: 0.017 µM
